# pKi: −log10 of the molar value. Where two headings read alike, the source gives them in different places.
# Assays:
# PPARγ LBD = target: T1, PPARγ LBD (Homo sapiens, UniProt P37231); assay: LBD-hPPARs transactivation assay (GAL4-LBD luciferase reporter in COS-7 cells); type: cell-based; conditions: 48 h
# T1 construct: expressed in transfected cells; host or cells: COS-7
# T1 sequence (P37231 238-503 limits assumed): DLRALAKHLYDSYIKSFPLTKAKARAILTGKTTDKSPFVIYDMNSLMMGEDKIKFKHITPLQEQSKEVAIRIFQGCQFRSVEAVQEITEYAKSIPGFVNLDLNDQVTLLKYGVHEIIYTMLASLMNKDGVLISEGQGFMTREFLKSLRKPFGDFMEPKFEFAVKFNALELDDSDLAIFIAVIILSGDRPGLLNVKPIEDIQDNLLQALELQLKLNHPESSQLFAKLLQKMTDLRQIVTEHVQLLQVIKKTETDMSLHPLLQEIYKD
# From the text: LBD-hPPARs Transactivation Assay
# COS-7 cells were cultivated in 24-well plates and transfected with the pFACMV plasmids that encode the chimeric proteins containing the GAL4 DNA binding domain fused to the PPARγ LBD. The reporter plasmid for the foregoing constructions was pFR-Luc, which contains five repetitions of the GAL4-response element in front of a promoter that controls the transcription of the luciferase gene. Lipofectamine was used as a transfection agent.
# The plasmids of the chimeric receptors and the reporter gene were inserted in the cells by transitory transfection in COS-7 cells in culture.
# GST-hPPARα = target: T2, GST-hPPARα (Homo sapiens, UniProt Q07869); assay: GST-hPPARα binding ([3H]-GW2433 displacement)
# T2 construct: the complete cDNA of the […] human PPARs were cloned into pGEX4T2; made in house; host or cells: Escherichia coli BL21 (DE3)
# T2 sequence (Q07869 1-468): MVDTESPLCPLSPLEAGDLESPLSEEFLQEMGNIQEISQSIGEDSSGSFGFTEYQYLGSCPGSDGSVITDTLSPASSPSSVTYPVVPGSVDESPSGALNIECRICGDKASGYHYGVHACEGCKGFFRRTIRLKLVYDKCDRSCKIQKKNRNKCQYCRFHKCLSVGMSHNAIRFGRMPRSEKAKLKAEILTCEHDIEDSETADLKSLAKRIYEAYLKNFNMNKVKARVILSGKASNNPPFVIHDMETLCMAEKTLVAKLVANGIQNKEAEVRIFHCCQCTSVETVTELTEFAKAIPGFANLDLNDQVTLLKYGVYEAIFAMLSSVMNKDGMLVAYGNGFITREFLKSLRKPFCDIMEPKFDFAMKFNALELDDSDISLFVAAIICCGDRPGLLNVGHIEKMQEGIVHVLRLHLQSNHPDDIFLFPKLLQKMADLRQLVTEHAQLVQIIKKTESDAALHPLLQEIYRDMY
# From the text: Cloning of Human PPARα, PPARδ and PPARγ2
# The human PPARs cDNAs were amplified through RT-PCR. For hPPARα, RNA was obtained from HepG2 cells treated with linoleic acid; for h PPARδ, RNA was obtained from untreated HepG2 cells; for hPPARγ2, RNA was obtained from human white adipose tissue. Each amplified fragment was cloned into pBluescript (Stratagene®) and sequenced. One clone for each construction was selected and used as template for further subcloning and PCR amplifications.
# GST-Fused Protein Construction
# To generate these chimeric proteins, the complete cDNA of the […] human PPARs were cloned into pGEX4T2 (Amersham Biosciences). The fragment was obtained from the pBluescript-cDNAs clones digested with endonucleases. To assess the plasmid identity and to ensure the in-phase cloning of the proteins, pGEXs constructions were sequenced. […] Receptor purity was visualized by SDS-PAGE and protein content was determined by Bradford method. […]
# Using 96-well culture plates, PPARα or PPARδ (5 μg) were diluted to a total volume of 100 μL with buffer consisting of 50 mM HEPES (pH: 7.0), 50 mM KCl, 5 mM EDTA and 10 mM DTT, in the presence of [3H]-GW2433 (100 and 50 nM for PPARα and PPARδ, respectively). […] Eluted radioactivity was quantitated by liquid scintillation counting in a Microbeta counter (Perkin Elmer).
# GST-hPPARγ2 = target: T3, GST-hPPARγ2 (Homo sapiens, UniProt P37231); assay: Assay of binding to the PPARγ2 ([3H]BRL-49853 displacement)
# T3 construct: the complete cDNA of the […] human PPARs were cloned into pGEX4T2; made in house; host or cells: Escherichia coli BL21 (DE3)
# T3 sequence (P37231 1-505): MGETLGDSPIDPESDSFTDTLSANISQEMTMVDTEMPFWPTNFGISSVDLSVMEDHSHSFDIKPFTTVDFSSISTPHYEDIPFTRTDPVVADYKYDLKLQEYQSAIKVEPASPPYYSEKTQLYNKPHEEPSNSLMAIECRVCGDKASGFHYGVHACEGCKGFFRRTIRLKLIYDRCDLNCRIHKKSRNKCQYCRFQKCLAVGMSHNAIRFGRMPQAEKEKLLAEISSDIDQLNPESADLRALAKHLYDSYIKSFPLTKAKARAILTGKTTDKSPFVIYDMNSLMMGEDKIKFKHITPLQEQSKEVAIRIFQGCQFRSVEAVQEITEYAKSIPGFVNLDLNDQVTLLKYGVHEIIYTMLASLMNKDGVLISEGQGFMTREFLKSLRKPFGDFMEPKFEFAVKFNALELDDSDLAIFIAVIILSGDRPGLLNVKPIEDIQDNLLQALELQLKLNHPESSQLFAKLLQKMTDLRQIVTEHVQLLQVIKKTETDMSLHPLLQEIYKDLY
# Method: Assay of Binding to the PPARγ2
# The cDNA encoding for the open reading frame of the hPPARγ2 is amplified by PCR (polymerase chain reaction) and inserted in the plasmid pGEX-4T-2.
# The reaction mixture was transferred to a Multiscreen Durapore (Millipore) microplate containing glutathione-Sepharose 4B in every well. The reaction mixture was left to incubate with the resin during 10 min, and then centrifuged at 735 g during 2 min. To dissociate the receptor bound to the resin, reduced glutathione 10 mM is added and incubated during 10 min. The receptor was eluted by centrifugation. Then, 800 μL of scintillation liquid were added to the elution and the contained radioactivity was quantified by liquid scintillation spectroscopy (Microbeta Wallac, Perkin Elmer).
# [1] = Table 19, GST-hPPARγ2, [3H]BRL-49853 100 nM, read-out: Affinity PPARγ(1)
Functional activity PPARγ (PPARγ LBD),pKi (GST-hPPARγ2; [1]),Structure (SMILES),pKi (GST-hPPARα),pKi (GST-hPPARγ2)
Agonist,> 6.00,"CCCCc1ccc(COc2ccc(C(=O)N[C@@H](CC3CCCCC3)C(=O)O)cc2)cc1 [Example 210, (2S)-2-[4-(4-Butylbenzyloxy)benzoylamino]-3-cyclohexylpropionic acid]",,
Antagonist,> 6.00,"CCCCc1ccc(COc2ccc(C(=O)N(CCC(=O)O)Cc3cccc(OCc4ccccc4)c3)cc2)cc1 [Example 218, 3-{(3-Benzyloxybenzyl)-[4-(4-butylbenzyloxy)benzoyl]amino}propionic acid]",,
Antagonist,> 6.00,"O=C(N[C@@H](Cc1ccc(OCc2ccccc2)cc1)C(=O)O)c1ccc(OCc2ccccc2Br)cc1 [Example 238, (2S)-3-(4-Benzyloxyphenyl)-2-[4-(2-bromobenzyloxy)benzoylamino]propionic acid]",,
Antagonist,> 6.00,"Cc1ccccc1COc1ccc(C(=O)N[C@@H](Cc2ccc(OCc3ccccc3)cc2)C(=O)O)cc1 [Example 243, (2S)-3-(4-Benzyloxyphenyl)-2-[4-(2-methylbenzyloxy)benzoylamino]propionic acid]",,
Partial agonist,5.52 to 6.00,"Cc1nc2ccccc2nc1OCCOc1ccc(C(=O)N[C@@H](Cc2ccc(OCc3ccccc3)cc2)C(=O)N(C)C)cc1 [Example 267, N-[(1S)-2-(4-Benzyloxyphenyl)-1-dimethylcarbamoylethyl]-4-[2-(3-methylquinoxalin-2-yloxy)ethoxy]benzamide]",,

# The remaining lines, values behind:
Structure (SMILES),Functional activity PPARγ (PPARγ LBD),pKi (GST-hPPARγ2; [1]),pKi (GST-hPPARα),pKi (GST-hPPARγ2)
"O=C(N[C@@H](Cc1ccc(OCc2ccccc2)cc1)C(=O)O)c1ccc(OCc2ccccc2-c2ccccc2)cc1 [Example 184, (2S)-3-(4-Benzyloxyphenyl)-2-[4-(biphenyl-2-ylmethoxy)benzoylamino]propionic acid]",Antagonist,,< 5.52,> 6.00
"O=C(N[C@@H](Cc1ccc(OCc2ccccc2)cc1)C(=O)O)c1cccc(OCc2ccc(-c3ccccc3)cc2)c1 [Example 187, (2S)-3-(4-Benzyloxyphenyl)-2-[3-(biphenyl-4-ylmethoxy)benzoylamino]propionic acid]",Agonist,> 6.00,,
"O=C(N[C@@H](Cc1ccc(OCc2ccccc2)cc1)C(=O)O)c1cccc(OCc2cccc(Oc3ccccc3)c2)c1 [Example 188, (2S)-3-(4-Benzyloxyphenyl)-2-[3-(3-phenoxybenzyloxy)benzoylamino]propionic acid]",Partial agonist,> 6.00,,
"Cc1nc2ccccc2nc1OCCOc1ccc(C(=O)N[C@@H](Cc2ccc(F)cc2)C(=O)O)cc1 [Example 192, (2S)-3-(4-Fluorophenyl)-2-{4-[2-(3-methylquinoxalin-2-yloxy)ethoxy]benzoylamino}propionic acid]",Partial agonist,< 5.52,,
"CCCCOc1ccc(COc2ccc(C(=O)N[C@@H](CC3CCCCC3)C(=O)O)cc2)cc1 [Example 237, (2S)-2-[4-(4-Butoxybenzyloxy)benzoylamino]-3-cyclohexylpropionic acid]",Partial agonist,> 6.00,,

# Reference: patent US20060160894A1, “Benzamides as ppar modulators” (LABORATORIOS S.A.L.V.A.T.,S.A., priority 2003, published 2006)
